Reference: PMC10454375, “Cell-Impermeable Inhibitors Confirm That Intracellular Human Transglutaminase 2 Is Responsible for the Transglutaminase-Associated Cancer Phenotype” (International Journal of Molecular Sciences, 2023)
Where two headings read alike, the source gives them in different places.

Assays:
Recombinant human TG2 [1] = target: T1, Recombinant human TG2 (Homo sapiens, UniProt P21980); design: method as in PMID 36846375; details: previous lead compound, Figure 1; cited from earlier work
T1 construct: GST (with PSP protease site, plasmid pGST-PSP-rhTG2) (N, cleaved yes); made in house; host or cells: E. coli (BL21)
T1 sequence (P21980 1-687): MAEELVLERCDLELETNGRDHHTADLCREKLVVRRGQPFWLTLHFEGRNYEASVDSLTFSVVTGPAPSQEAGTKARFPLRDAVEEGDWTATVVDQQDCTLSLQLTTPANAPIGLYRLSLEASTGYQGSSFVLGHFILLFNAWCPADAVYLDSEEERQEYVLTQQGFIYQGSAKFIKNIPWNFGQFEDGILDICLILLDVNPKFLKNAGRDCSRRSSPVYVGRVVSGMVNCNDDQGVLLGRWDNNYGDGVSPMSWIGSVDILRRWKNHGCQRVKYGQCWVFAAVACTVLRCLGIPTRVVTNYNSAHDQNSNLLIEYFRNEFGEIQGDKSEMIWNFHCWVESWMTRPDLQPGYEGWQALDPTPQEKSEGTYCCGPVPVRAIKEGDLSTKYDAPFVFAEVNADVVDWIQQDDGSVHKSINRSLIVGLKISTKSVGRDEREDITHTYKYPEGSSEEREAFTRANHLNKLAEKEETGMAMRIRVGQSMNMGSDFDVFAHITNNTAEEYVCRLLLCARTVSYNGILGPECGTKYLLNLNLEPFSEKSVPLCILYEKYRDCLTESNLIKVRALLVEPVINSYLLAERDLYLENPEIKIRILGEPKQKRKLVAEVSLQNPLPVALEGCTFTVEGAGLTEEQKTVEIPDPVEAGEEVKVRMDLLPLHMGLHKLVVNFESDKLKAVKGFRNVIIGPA

Recombinant human TG2 [2] = target: T1, Recombinant human TG2; assay: rhTG2 inhibition assay, continuous chromogenic substrate AL5, Kitz and Wilson conditions; format: biochemical; details: for kinact / Ki: * compounds fitted to double reciprocal model, 25 °C, pH 6.9, 100 µM AL5; for kinact/KI: * double reciprocal model, ** lowest concentrations of saturation plot fitted to a linear model; for Ki: irreversible inhibition
Text: Relative to the original scaffold, we expected the potency of these novel chemical biology tools to decrease slightly, due to the additional bulk incorporated on the glutamate sidechain. Although we expected the sidechain moiety to be directed into bulk solvent, we were concerned that its mass and charge would disfavor the binding interaction. Therefore, we kinetically characterized these probes as rigorously as possible, in order to determine their relative affinity and reactivity. For most inhibitors we have made, including the parent inhibitor AA9 (Figure 1), we have been able to measure kinetic parameters under Kitz and Wilson conditions. This experimental approach is based on the use of a continuous activity assay and the measurement of first-order rate constants for the time-dependent inactivation of enzyme (see Figure 2A and Figures S1–S5 in Supplementary Materials). The dependence of these observed rate constants (kobs) on the inhibitor concentration divided by alpha ([I]/α) can then be fitted to a hyperbolic saturation model where the upper plateau represents the rate constant of inactivation (kinact), and the concentration providing half the rate constant of inactivation represents KI (Figure 2B). […] To compensate for this, the overall efficiency of the inhibitor (kinact/KI) can be derived from the slope of the linear region of the saturation plot (Figure 2C). To gauge the individual parameters, a double reciprocal fitting was also employed where KI can be calculated from the x-axis intercept and kinact can be calculated from the y-axis intercept (Figure 2D).
Recombinant human TG2 was expressed and purified using previously published protocols. The inhibition was monitored using a continuous chromogenic substrate AL5 [38] under Kitz and Wilson conditions. In brief, 125 µL of assay buffer composed of 111.11 mM MOPS, 15.56 CaCl2 pH 6.9 was added to a 1.5 mL Eppendorf tube to achieve final assay concentrations of 50 mM MOPS and […] CaCl2. To the tube was then added the respective concentration of inhibitor from an aqueous working stock (<5% DMSO final conditions). Various volumes of water were then added to ensure the final volumes were equal. The AL5 substrate was added to the Eppendorf tube as a 5 µL 5.56 mM solution in DMSO to obtain a final assay concentration of 100 µM. A 96-well polystyrene microplate then had 180 µL of the assay mixture added to it. The enzymatic reaction was finally initiated by addition of 20 µL 5 mU prediluted TG2 in assay buffer using a multichannel pipette. The reaction was monitored at 405 nm using a BioTek Synergy 4 plate reader for 20 min at 25 °C. A positive control with no inhibitor and a blank with no enzyme nor inhibitor were also included. The blank subtracted kinetic curves were then analyzed. The observed first-order rate constants of inactivation were gathered through a one-phase association model using the GraphPad software package. The rate constants were then fit to various models to elucidate the inhibition parameters. If saturation was achieved, they were fit to a saturation model versus the inhibitor concentration divided by alpha (where α=1+Substrate/Km ). A linear regression of the linear region of this saturation fitting was calculated to obtain a ratio of kinact/KI. A further double reciprocal model was used if saturation could not be observed due to the limitations in sensitivity of the assay or if solubility issues were present.

GST-TG2 fusion protein = target: T2, GST-TG2 fusion protein (Homo sapiens, UniProt P21980); assay: Pull-down of rhTG2 from E. coli lysate (CuAAC with desthiobiotin-PEG3-azide, streptavidin resin); format: binding; details: E. coli lysate overexpressing GST-rhTG2; elution with 4 mM biotin
T2 construct: made in house; host or cells: BL21 E. coli (crude lysate)
Procedure: As a proof of concept, previously described BL21 E. coli cells were transformed with a plasmid (pGST-PSP-rhTG2) to induce overexpression of recombinant human TG2 (rhTG2) as a GST fusion protein [47]. The bacterial cells were then lysed and exposed to the propargylated inhibitor 31 to allow for labelling. A subsequent CuAAC reaction was then performed in the same cell lysate to incorporate the desthiobitoin-PEG3-azide into labelled TG2. The lysate was then passed over streptavidin resin to isolate all proteins that had reacted with inhibitor 31. These proteins were then eluted from the resin using a solution of 4 mM biotin, and the eluant was analyzed by SDS-PAGE. […] This validates not only the TG2-selectivity of probe 31, but also the efficiency of the click reaction of the GST-TG2-31 adduct, allowing for the isolation of TG2 from cell lysate in a very mild manner.
A total of 400 µL of the aforementioned E. coli cell lysate combined with 133 µL of a solution of 75 µM 31 was added to a 1.5 mL Eppendorf tube. The labelling was allowed to occur for 25 min. Totals of 25 µL of a solution of 500 µM azide-PEG3-desthiobiotin 32 and 500 µM cupric sulfate in 20 mM HEPES at pH 8.0 were added to the tube. To initiate the click reaction, 100 µL of 150 µM sodium ascorbate solution in mQ H2O was added and gently rocked for 2.5 h at room temperature. […]

[3] = Solubility in aqueous solutions; format: physicochemical; details: read-out: concentration above which decreased solubility in aqueous solutions was displayed

T2 sequence (P21980 with tags, fused parts or gaps): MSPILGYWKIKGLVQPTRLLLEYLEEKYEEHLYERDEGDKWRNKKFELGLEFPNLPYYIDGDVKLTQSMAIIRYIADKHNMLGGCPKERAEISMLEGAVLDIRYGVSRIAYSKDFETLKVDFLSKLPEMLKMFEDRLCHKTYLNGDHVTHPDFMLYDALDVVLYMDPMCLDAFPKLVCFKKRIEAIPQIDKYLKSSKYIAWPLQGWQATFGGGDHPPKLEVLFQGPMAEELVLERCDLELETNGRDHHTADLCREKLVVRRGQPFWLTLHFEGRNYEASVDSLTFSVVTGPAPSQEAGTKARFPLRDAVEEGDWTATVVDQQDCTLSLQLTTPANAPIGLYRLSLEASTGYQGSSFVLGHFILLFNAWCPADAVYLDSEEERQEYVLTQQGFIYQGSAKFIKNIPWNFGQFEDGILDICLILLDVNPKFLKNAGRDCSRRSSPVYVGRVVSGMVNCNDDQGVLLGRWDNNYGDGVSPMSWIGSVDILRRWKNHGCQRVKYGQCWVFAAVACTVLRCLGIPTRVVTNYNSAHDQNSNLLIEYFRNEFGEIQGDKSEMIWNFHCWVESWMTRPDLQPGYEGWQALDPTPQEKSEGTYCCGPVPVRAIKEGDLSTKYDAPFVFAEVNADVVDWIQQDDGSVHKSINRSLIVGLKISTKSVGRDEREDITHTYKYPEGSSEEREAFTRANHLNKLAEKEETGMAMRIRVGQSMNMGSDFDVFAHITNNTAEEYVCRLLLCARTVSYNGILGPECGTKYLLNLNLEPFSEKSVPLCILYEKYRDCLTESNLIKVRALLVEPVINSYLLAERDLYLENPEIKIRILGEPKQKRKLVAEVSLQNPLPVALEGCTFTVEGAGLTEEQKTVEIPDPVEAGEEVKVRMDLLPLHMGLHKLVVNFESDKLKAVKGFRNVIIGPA

kinact (Recombinant human TG2 [2])	kinact/KI (Recombinant human TG2 [2])	Ki (Recombinant human TG2 [2])	solubility [3]	Compound	kinact/KI (Recombinant human TG2 [1])	proteins isolated by pull-down (TG2 selectivity) (GST-TG2 fusion protein)
–	–	–	–	C=CC(=O)NCCCC[C@H](NC(=O)OCc1ccccc1)C(=O)N1CCN(C(=O)c2cccc3ccccc23)CC1 [AA9]	1670 M⁻¹ s⁻¹	–
0.00767 s⁻¹	8280 M⁻¹ s⁻¹	900 ± 500 nM	–	C#CCNC(=O)CC[C@H](NC(=O)c1cccc2ccccc12)C(=O)N1CCN(C(=O)[C@H](CCCCNC(=O)C=C)NC(=O)OCc2ccccc2)CC1 [Compound 31]	–	the only protein efficiently isolated in this experiment corresponds to the GST-TG2 fusion protein
0.004 s⁻¹	3130 M⁻¹ s⁻¹	1300 ± 1100 nM	> 25 µM	C=CC(=O)NCCCC[C@H](NC(=O)OCc1ccccc1)C(=O)N1CCN(C(=O)[C@H](CCC(=O)NCCCCCNC(=O)c2cc3ccc(N(CC)CC)cc3oc2=O)NC(=O)c2cccc3ccccc23)CC1 [Compound 22]	–	–
